≈ marks a conversion by molar mass, not a printed value. Calls of active or inactive are those of the source. No cut-off for these calls is given here.
Assays:
[1] = tested on: Staphylococcus aureus; assay: Antibacterial activity against Staphylococcus aureus 29213 assessed as inhibition of bacterial growth; type: functional
[2] = tested on: Staphylococcus epidermidis; assay: Antibacterial activity against Staphylococcus epidermidis 1457 assessed as inhibition of biofilm formation at 10 ug/ml incubated for 5 hrs by confocal microscopic analysis; type: functional, organism-based; details: dose 10.0 µg/ml
[3] = tested on: Enterococcus faecium; assay: Antibacterial activity against Vancomycin-resistant Enterococcus faecium 1014 assessed as inhibition of bacterial growth; type: functional
[4] = tested on: Staphylococcus aureus; assay: Bactericidal activity against methicilin-resistant Staphylococcus aureus 21455 assessed as reduction in bacterial growth by measuring minimum bactericidal concentration at 4 times MIC by time-kill kinetic assay; type: functional
[5] = tested on: Staphylococcus epidermidis; assay: Antibacterial activity against Staphylococcus epidermidis 12228 assessed as inhibition of bacterial growth; type: functional
[6] = tested on: Bacillus subtilis; assay: Antibacterial activity against Bacillus subtilis ATCC 6633 assessed as inhibition of bacterial growth; type: functional
[7] = tested on: Staphylococcus aureus; assay: Antibacterial activity against methicilin-resistant Staphylococcus aureus 1003 assessed as inhibition of bacterial growth; type: functional
[8] = tested on: Staphylococcus aureus; assay: Antibacterial activity against methicilin-resistant Staphylococcus aureus 42412 assessed as inhibition of bacterial growth; type: functional
[9] = tested on: Staphylococcus aureus; assay: Antibacterial activity against Staphylococcus aureus 4299 assessed as inhibition of bacterial growth; type: functional
[10] = Hemolytic activity in rabbit erythrocytes assessed as hemolysis at 512 microg/ml relative to control; type: toxicity, cell-based, Oryctolagus cuniculus, Erythrocyte; details: at 512 µg/mL, read-out: Activity
[11] = tested on: Staphylococcus aureus; assay: Antibacterial activity against methicilin-resistant Staphylococcus aureus ATCC 700699 assessed as inhibition of bacterial growth; type: functional
[12] = tested on: Staphylococcus saprophyticus; assay: Antibacterial activity against Staphylococcus saprophyticus ATCC BAA 750 assessed as inhibition of bacterial growth; type: functional
[13] = tested on: Staphylococcus saprophyticus; assay: Antibacterial activity against Staphylococcus saprophyticus ATCC 15305 assessed as inhibition of bacterial growth; type: functional
[14] = tested on: Enterococcus faecium; assay: Antibacterial activity against Vancomycin-resistant Enterococcus […] ATCC 29212 assessed as inhibition of bacterial growth; type: functional; details: Enterococcus faecalis
[15] = tested on: Staphylococcus aureus; assay: Antibacterial activity against Staphylococcus aureus 15981 assessed as inhibition of biofilm formation at 10 ug/ml incubated for 5 hrs by confocal microscopic analysis; type: functional, organism-based; details: dose 10.0 µg/ml
[16] = tested on: Staphylococcus saprophyticus; assay: Antibacterial activity against Staphylococcus saprophyticus ATCC 49907 assessed as inhibition of bacterial growth; type: functional
[17] = tested on: Enterococcus faecium; assay: Antibacterial activity against Vancomycin-resistant Enterococcus […] ATCC 700802 assessed as inhibition of bacterial growth; type: functional
[18] = tested on: Bacillus cereus; assay: Antibacterial activity against Bacillus cereus ATCC 11788 assessed as inhibition of bacterial growth; type: functional
[19] = tested on: Staphylococcus aureus; assay: Antibacterial activity against methicilin-resistant Staphylococcus aureus 21455 assessed as inhibition of bacterial growth; type: functional
[20] = tested on: Staphylococcus saprophyticus; assay: Antibacterial activity against Staphylococcus saprophyticus ATCC 49453 assessed as inhibition of bacterial growth; type: functional
[21] = tested on: Staphylococcus aureus; assay: Bactericidal activity against methicilin-resistant Staphylococcus aureus 21455 assessed as inhibition of bacterial growth by time-kill kinetic assay; type: functional, organism-based

CCCC[C@@H]1NC(=O)[C@H](C)NC(=O)[C@H](NC(=O)[C@H](CO)NC(=O)[C@@H](NC(=O)[C@H](NC(=O)[C@@H](CCC(N)=O)NC(=O)[C@H](CO)NC(=O)[C@@H](NC(=O)[C@@H](Cc2ccccc2)NC)[C@@H](C)CC)[C@@H](C)CC)[C@@H](C)CC)[C@H](C)OC(=O)[C@H]([C@@H](C)CC)NC1=O
MIC [1]: 0.063 µg/mL (≈ 0.0524 µM) | Activity [2]: Active | MIC [3]: 1 µg/mL (≈ 0.832 µM) | MBC [4]: 1 µg/mL (≈ 0.832 µM) | MIC [5]: 0.063 µg/mL (≈ 0.0524 µM) | MIC [6]: 0.063 µg/mL (≈ 0.0524 µM) | MIC [7]: 0.5 µg/mL (≈ 0.416 µM) | MIC [8]: 0.125 µg/mL (≈ 0.104 µM) | MIC [9]: 0.25 µg/mL (≈ 0.208 µM) | hemolysis at 512 microg/ml [10]: ≤ 2% | MIC [11]: 0.5 µg/mL (≈ 0.416 µM) | MIC [12]: 0.063 µg/mL (≈ 0.0524 µM) | MIC [13]: 0.063 µg/mL (≈ 0.0524 µM) | MIC [14]: 1 µg/mL (≈ 0.832 µM) | Activity [15]: Active | MIC [16]: 0.063 µg/mL (≈ 0.0524 µM) | MIC [17]: 0.5 µg/mL (≈ 0.416 µM) | MIC [18]: 0.063 µg/mL (≈ 0.0524 µM) | MIC [19]: 0.25 µg/mL (≈ 0.208 µM) | MIC [20]: 0.063 µg/mL (≈ 0.0524 µM) | Activity [21]: Dose-Dependent Effect

Reference: ChEMBL document CHEMBL5634143, “Development of teixobactin analogues containing hydrophobic, non-proteogenic amino acids that are highly potent against multidrug-resistant bacteria and biofilms” (Eur J Med Chem, 2023)
